Experimental data taken from EP1621546B1, “Peptide ligands specific to immonoglobulins” (Tecnogen S.p.A., priority 2004, dated 2008).

Tests used:
[1] = system: IgG, IgE, IgM and IgA immunoglobulins; assay: Separation and purification of immunoglobulins from raw murine serum by affinity chromatography on the resin-immobilized compound; assay type: binding; conditions: compound immobilized on Ultralink Biosupport Medium
Procedure: (§1) Compound IB (5 mg) prepared according to the preceding Example 1 was dissolved in 5.0 ml of 0.2 M NaHCO3, 0.6 M Na citrate, pH 9.0, and incubated with 130 mg (1 mL) of resin Ultralink Biosupport Medium™ (PIERCE, Rockford, IL, USA), a support for affinity chromatography pre-activated with a function of the azalactone type for direct coupling of peptides and proteins. The suspension was stirred for 12 hours at room temperature and the extent of coupling was monitored by taking samples of the reaction mixture at various times and then analysing by RP-HPLC.
(§2) After 12 hours, approx. 90-95% of the initial peptide had been immobilized covalently on the resin. The derivatized resin was incubated with 0.1 M TRIS, pH 8.5 to block any sites of the resin that are still reactive, and then packed in a glass column 100 x 0.6 mm ID with variable plunger (OMNIFIT™, Cat. No. 006CC-06-10-FF).
To evaluate the capability of Compound I(B) immobilized on resin according to Example 2 to separate and purify immunoglobulins, the column was equilibrated with buffer 25 mM Bis-Tris (Bis(2-hydroxyethyl)amino-tris(hydroxymethyl)methane, Sigma-Aldrich™, Cat. No. B7535), pH 6.5, at a flow rate of 1 mL/min, monitoring the eluent at 280 nm. […]

[2] = system: immunoglobulins (IgG, IgE, IgM and IgA) present in human serum; assay: Separation and purification of immunoglobulins from raw human serum by affinity chromatography on the resin-immobilized compound (gel electrophoresis and Western blotting of fractions); assay type: binding; conditions: compound immobilized on Ultralink Biosupport Medium
Procedure: as §1, §2
To evaluate the capability of Compound I(B) immobilized on resin according to Example 2 to separate and purify immunoglobulins, the column was equilibrated with buffer 25 mM Bis-Tris (Bis(2-hydroxyethyl)amino-tris(hydroxymethyl)methane, Sigma-Aldrich™, Cat. No. B7535), pH 6.5, at a flow rate of 1 mL/min, monitoring the eluent at 280 nm.
Raw human serum (Sigma-Aldrich™, Cat. No. R9133) was filtered, diluted 1:1 (v/v) with the binding buffer, loaded on the column and, after elution of the unbound material, the eluent was changed to acetic acid (AcH, Sigma-Aldrich™, Cat. No. 46928) 0.1 M, pH 3.0, for eluting the adsorbed material.
The material eluted from the column was neutralized with TRIS 1 M, pH 9.0 and characterized by analysis by polyacrylamide gel electrophoresis and Western blotting (WB) on nitrocellulose for identifying the immunoglobulins retained.

## (NH2-L-Cys-L-Tyr-L-His-L-His)2-L-Lys-L-Gly-OH [Compound I(B)]
[1]
  albumin (selectivity of the column): recovered in the unretained material
  immunoglobulins retained by the column: able to retain the IgG, IgE, IgM and IgA immunoglobulins
[2]; raw human serum diluted 1:1, binding buffer 25 mM Bis-Tris pH 6.5, elution with acetic acid 0.1 M pH 3.0
  retention of the immunoglobulin fraction of the raw serum (electrophoretic analysis): able to retain the immunoglobulin fraction of the raw serum
[2]; raw human serum, Western blotting on nitrocellulose
  classes of immunoglobulins retained (WB analysis of the retained material): retained all the classes of immunoglobulins (IgG, IgE, IgM and IgA)
[2]; raw human serum, electrophoretic analysis
  albumin (selectivity of the column): recovered in the unretained material
